Test results: US20140093903A1, “METHODS FOR DIAGNOSIS, PROGNOSIS AND METHODS OF TREATMENT” (Nodality, Inc., priority 2012, published 2014)

How the values were obtained:
CLL cells [1] = settings: inhibition of AKT phosphorylation by the PI3K inhibitor; cited from earlier work
healthy B cells = system: healthy B cells
Experimental: (§1) Cryopreserved PBMCs, 23 from CLL patients and 7 from healthy donors, were rapidly thawed in a 37° C. water bath. 1 mL of pre-warmed thawing media (PBS 1% FBS, 2 mM EDTA) was added dropwise to each of the cryovials. Thawed cells were transferred to a tube containing 8 mL thawing media. Tubes were inverted and centrifuged at 200×g for 8 minutes at room temperature. Supernatant was decanted, cell pellets were resuspended in 1 mL RPMI 1640 1% FCS and filtered over 70 um nylon mesh (BD Falcon) to remove cell clumps and debris. 11 mL of additional RPMI 1640 1% FCS was added to the samples to wash. A 20 uL aliquot was removed from each sample and placed into a solution of PBS 4% FCS CD45 Alexa Flour 700 and Propidium Iodide for viability and counting on a BDLSRII cytometer. The remaining volume of cell suspension was centrifuged at 200×g for 8 minutes at room temperature
For single agent modulators 150 μL of 10× solutions were arrayed into wells of a 96-well v-bottom plate (Nunc). Corresponding daughter plates were taken from the 37° C. incubator, and […] of RPMI1640 1% FCS was added to each well using the Liquidator 96-well pipettor. […] The daughter plates were pulse vortexed for 5 seconds and placed into a 37° C. water bath for 10 minutes.
Corresponding daughter plates were taken from the 37° C. incubator. […]
Antibody cocktails for signaling and apoptosis readouts were prepared in FACS Buffer. […]

CLL B cells = test: SCNP phospho-flow: H2O2-modulated BCR signaling, CLL samples; type: cell-based, human; settings: after exposure to H2O2
Experimental: as §1, with “Thawed cells were transferred to a tube containing 8 mL thawing media. Tubes were inverted and centrifuged at 200×g for 8 minutes at room temperature.” left out, “cytometer.” for “cytometer. The remaining volume of cell suspension was centrifuged at 200×g for 8 minutes at room temperature”
At the end of the 10 minute incubation […] 5.6% PFA (final 1.6%) was added to each well to fix the cells.
At the end of the 10 minute incubation 200 uL 5.6% PFA (final 1.6%) was added to each well to fix the cells.
Cells were permeabilized by adding 600 µL of ice cold 100% methanol to each well using the Costar 96-channel pipettor (Costar). […]
To test whether phenotypic characterization of CLL physiology could be discerned based on responses of cells to extracellular stimuli, modulated BCR intracellular signaling was determined either in response to anti-μ (ligand-dependent) or post H2O2 treatment to evaluate the contribution of tonic signaling (ligand-independent) to BCR output. […]

CLL cells [2] = settings: in vitro treatment; Buchner 2009, Gobessi 2009; cited from earlier work
CD19+CD5+ CLL cells [3] = test: SCNP drug-induced signaling, Example 2 (4 and 24 hours); type: cell-based, human
Experimental: Peripheral blood mononuclear cells (PBMCs) were obtained from 29 patients with CLL treated on a clinical trial at “La Sapienza” University of Rome between November 2008 and January 2010 at the time of but prior to the initiation of first treatment. All patients provided informed consent for research purposes. SCNP assays were performed blinded to clinical outcomes. […] SCNP analysis was performed to quantitatively measure 18 intracellular signaling proteins within CD19+CD5+ CLL cells using a panel of 14 disease-relevant modulators (FIG. 27) as follows:
SCNP analysis was performed to quantitatively measure intracellular signaling proteins within CD19+CD5+ CLL cells using a panel of disease-relevant modulators. First, the cryopreserved PBMC samples were thawed at 37° C., stained for viability with Amine Aqua (Invitrogen, Carlsbad, Calif.), resuspended in RPMI with 10% FBS and aliquoted at 100,000 cells per well 96-deepwell plates. Cells were rested for 2 hours at 37° C. followed by modulation. Short duration modulation was performed for 10 minutes at 37° C. with the following modulators: 20 μg/mL polyclonal goat F(ab′)2 anti-human IgM (Southern Biotech, Birmingham, Ala.), 5 μg/mL monoclonal anti-human IgD (BD Biosciences, San Jose, Calif.), 10 ng/mL of SDF1□ (R&D Systems, Minneapolis, Minn.), and the combination of 20 μg/mL polyclonal goat F(ab′)2 anti-human IgM and 10 ng/mL of SDF1□□□15 minute modulations were performed for the following: 0.5 μg/mL CD40L (R&D Systems, Minneapolis, Minn.), 50 ng/mL IL-2 (R&D Systems, Minneapolis, Minn.), 50 ng/mL IL-4 (BD Biosciences, San Jose, Calif.), 50 ng/mL IL-21 (Peprotech, Rocky Hill, N.J.), 1000 IU/mL of IFN□ (PBL InterferonSource, Piscataway, N.J.), 5 μg/mL R848 (Invivogen, San Diego, Calif.), and 1 μM thapsigargin (EMD Millipore, Billerica, Mass.). […]

CD19+CD5+B-CLL cells = test: SCNP modulated signaling, Example 3 (B-CLL vs healthy B cells); type: cell-based, human; settings: CLL samples compared to healthy controls
Experimental: Peripheral blood mononuclear cells (PBMCs) were obtained from 39 B-CLL patients between 2006 and 2007, Rai stage 0-II, at different time points during their clinical course but prior to the initiation of treatment. PBMCs from four age-matched healthy donors were collected at the Stanford Blood Center. All donors provided informed consent for research purposes. SCNP assays were performed blinded to clinical data. Diagnosis and initiation of treatment for B-CLL were based on 1996 National Cancer Institute-Working Group (NCI-WG)/IWCLL 2008 Guidelines for Diagnosis and Treatment of CLL. The median age of CLL patients was slightly lower than the typical CLL population (58 years vs 65-70). Of the 39 samples evaluated, 15 expressed CD38 (≧30% of cells) and 20 expressed ZAP-70 (≧20% of cells); 19 were IGHV unmutated (98% cutoff); and the cytogenetic risk groups were evenly represented. IGHV mutational status and expression of CD38 and ZAP-70 were determined. […]
SCNP analysis quantitatively measured intracellular signaling proteins within CD19+CD5+B-CLL cells using a panel of disease-relevant modulators (FIG. 27, FIG. 35A, B). […]
Flow cytometry data were gated using WinList (Verity House Software, Topsham, Me.). […] The raw instrument fluorescence intensities were converted to calibrated intensity metrics (ERFs, Equivalent Number of Reference Fluorophores). […]

CD19+CD5+ CLL cells [4] = test: SCNP modulated signaling, Example 2 (10-15 min modulation); type: cell-based, human; settings: SDF1α 10 ng/mL
Experimental: Peripheral blood mononuclear cells (PBMCs) were obtained from 29 patients with CLL treated on a clinical trial at “La Sapienza” University of Rome between November 2008 and January 2010 at the time of but prior to the initiation of first treatment. All patients provided informed consent for research purposes. SCNP assays were performed blinded to clinical outcomes. Diagnosis and initiation of treatment for B-CLL were based on 1996 National Cancer Institute-Working Group ([…] 2008 Guidelines for Diagnosis and Treatment of CLL. Clinical and biological disease characteristics at diagnosis are summarized in FIG. 28 IGHV mutational status and expression of CD38 and ZAP-70 were determined. […] SCNP analysis was performed to quantitatively measure intracellular signaling proteins within CD19+CD5+ CLL cells using a panel of disease-relevant modulators. […] Cells were rested for 2 hours at 37° C. followed by modulation. Short duration modulation was performed for 10 minutes at 37° C. with the following modulators: 20 μg/mL polyclonal goat F(ab')2 anti-human IgM (Southern Biotech, Birmingham, Ala.), 5 μg/mL monoclonal anti-human IgD (BD Biosciences, San Jose, Calif.), 10 ng/mL of SDF1[…] (R&D Systems, Minneapolis, Minn.), and the combination of 20 μg/mL polyclonal goat F(ab')2 anti-human IgM and 10 ng/mL of SDF1[…]15 minute modulations were performed for the following: 0.5 μg/mL CD40L (R&D Systems, Minneapolis, Minn.), 50 ng/mL IL-[…] […] The raw instrument fluorescence intensities were converted to calibrated intensity metrics (ERFs, Equivalent Number of Reference Fluorophores). […] The term “signaling node” is used to refer to a proteomic readout in the presence or absence of a specific modulator. For example, the response to anti-IgM modulation can be measured using p-ERK as a readout. […] The term “metric” is used to refer to the quantification method used to evaluate the functional response of signaling proteins. […]

[5] = 24 hours, samples with low spontaneous apoptosis

CC[C@H](Nc1ncnc2[nH]cnc12)c1nc2cccc(F)c2c(=O)n1-c1ccccc1 [CAL-101/GS-1101]
CD40L protection from spontaneous apoptosis (CLL cells [1]): blocked

OO [H2O2, hydrogen peroxide]
anti-μ-mediated BCR signaling in presence of H2O2 (healthy B cells; B cells from healthy donors): further potentiated
response of all signaling molecules except Akt to H2O2 treatment alone (healthy B cells; healthy B cells): minimally responsive
B cells with activated Syk and BLNK (CLL B cells; sample CLL007 (Group II)): approximately 2%
B cells with activated Syk and BLNK (CLL B cells; sample CLL021 (Group II)): 5-6%

COc1cc(Nc2ncc(F)c(Nc3ccc4c(n3)NC(=O)C(C)(C)O4)n2)cc(OC)c1OC [R406]
apoptotic response of CLL cells (CLL cells [2]): mediated an apoptotic response

Cn1c(CCCC(=O)O)nc2cc(N(CCCl)CCCl)ccc21 [bendamustine]
induced p-53BP1 signaling, bendamustine versus fludarabine (CD19+CD5+ CLL cells [3]; [5]): greater
induced p-H2AX signaling, bendamustine versus fludarabine (CD19+CD5+ CLL cells [3]; [5]): equivalent
p21 induction in response to bendamustine (CD19+CD5+ CLL cells [3]; CLL samples with 17p deletion, 24 hour, additional cohort of 7 CLL samples): impaired p21 induction

SDF1α
SDF1α→p-AKT modulation as a single stimulus (CD19+CD5+B-CLL cells): weaker in nearly all CLL samples
SDF1α→p-AKT signal (CD19+CD5+ CLL cells [4]; 10 min, moderate signal): ≥ 0.25 log 2Fold
SDF1α→p-ERK signal (CD19+CD5+ CLL cells [4]; 10 min, moderate signal): ≥ 0.25 log 2Fold
p-ERK signal, median log 2Fold (CD19+CD5+ CLL cells [4]; 10 min modulation, αIgM 20 μg/mL): 0.38 log 2Fold
